Measurements: ChEMBL document CHEMBL4373717, “Coumarin-containing hybrids and their anticancer activities” (Eur J Med Chem, 2019)
pIC50: −log10 of the molar value. Converted amounts (≈) assume the structure as drawn.

Key:
Format in all cases: functional, cell-based
[1] = test system: MDA-MB-231; assay: Cytotoxicity against human MDA-MB-231 cells assessed as reduction in cell viability after 24 hrs by MTT assay
[2] = test system: A549; assay: Cytotoxicity against human A549 cells assessed as reduction in cell viability after 24 hrs by MTT assay; settings: A549, 24 h
[3] = test system: MDA-MB-231; assay: Anticancer activity against human MDA-MB-231 cells by MTT assay
[4] = test system: 769-P; assay: Anticancer activity against human 769-P cells by MTT assay
[5] = test system: HepG2; assay: Anticancer activity against human HepG2 cells by MTT assay
[6] = test system: MCF7; assay: Cytotoxicity against human MCF7 cells assessed as reduction in cell viability after 48 hrs by MTT assay; settings: MCF7, 48 h
[7] = test system: K562; assay: Cytotoxicity against human K562 cells assessed as reduction in cell viability after 68 hrs by MTT assay; settings: K562, 68 h
[8] = test system: MCF7; assay: Cytotoxicity against human MCF7 cells assessed as reduction in cell viability after 68 hrs by MTT assay; settings: MCF7, 68 h
[9] = test system: A549; assay: Cytotoxicity against human A549 cells assessed as reduction in cell viability after 68 hrs by MTT assay; settings: A549, 68 h
[10] = test system: HeLa; assay: Cytotoxicity against human HeLa cells assessed as reduction in cell viability after 68 hrs by MTT assay
[11] = test system: A549; assay: Anticancer activity against human A549 cells by MTT assay
[12] = test system: HeLa; assay: Anticancer activity against human HeLa cells by MTT assay
[13] = test system: K562; assay: Anticancer activity against human K562 cells by MTT assay

Structure (SMILES): O=c1oc2ccccc2cc1-c1cc(-c2ccc(Br)cc2)nc(Cc2ccc(F)cc2)n1
- pIC50 ([1]; Homo sapiens, MDA-MB-231, 24 h): 4.54 to 5.67
- pIC50 [2]: 4.54 to 5.67

Structure (SMILES): O=c1ccc2ccc(OCCCCCCCCCCn3cc(COc4ccc5ccc(=O)oc5c4)nn3)cc2o1
- pIC50 [3]: 4.87 to 6.42
- pIC50 [4]: 4.87 to 6.42
- pIC50 [5]: 4.87 to 6.42

Structure (SMILES): Cc1cc(-c2cc3ccccc3oc2=O)n(-c2nc(-c3ccccc3)cs2)n1
- pIC50 [6]: 4.50 to 5.39

Structure (SMILES): COc1ccc(OC)c(NC(=O)Nc2ccc(Cc3c(C)c4cc(C(C)(C)C)c(O)cc4oc3=O)cn2)c1
- pIC50 [7]: 4.71 to 5.78
- pIC50 [8]: 4.71 to 5.78
- pIC50 [9]: 4.71 to 5.78
- pIC50 [10]: 4.71 to 5.78

Structure (SMILES): O=c1oc2ccccc2cc1-c1cc(-c2ccc(Cl)cc2)nc(Cc2ccc(F)cc2)n1
- pIC50 ([1]; Homo sapiens, MDA-MB-231, 24 h): 5.60
- pIC50 [2]: 5.60

Structure (SMILES): CC(=O)c1ccc(NC(=O)Nc2ccc(Cc3c(C)c4cc(C(C)(C)C)c(O)cc4oc3=O)cn2)cc1
- pIC50 [7]: 4.71 to 5.78
- pIC50 [8]: 4.71 to 5.78
- pIC50 [9]: 4.71 to 5.78
- pIC50 [10]: 4.71 to 5.78

Structure (SMILES): Cc1ccccc1NC(=O)c1ccc(-n2cc(COc3cc(=O)oc4ccccc34)nn2)cc1
- pIC50 ([1]; mda-mb-231): 4.04 to 7.52

Structure (SMILES): COc1ccc(-c2csc(-n3nc(C)cc3-c3cc4ccccc4oc3=O)n2)cc1
- pIC50 [6]: 4.50 to 5.39

Structure (SMILES): Cc1cc(-c2cc3ccccc3oc2=O)n(-c2nc(-c3ccc(Br)cc3)cs2)n1
- pIC50 [6]: 4.50 to 5.39

Structure (SMILES): O=C(Nc1ccc(F)c(Cl)c1)c1ccc(-n2cc(COc3cc(=O)oc4ccccc34)nn2)cc1
- pIC50 ([1]; mda-mb-231): 4.04 to 7.52

Structure (SMILES): O=c1ccc2ccc(OCCCCn3cc(COc4ccc5ccc(=O)oc5c4)nn3)cc2o1
- pIC50 [3]: 4.87 to 6.42
- pIC50 [4]: 4.87 to 6.42
- pIC50 [5]: 4.87 to 6.42

Structure (SMILES): Cc1c(Cc2ccc(NC(=O)Nc3ccccc3)nc2)c(=O)oc2cc(O)c(C(C)(C)C)cc12
- pIC50 [7]: 4.71 to 5.78
- pIC50 [8]: 4.71 to 5.78
- pIC50 [9]: 4.71 to 5.78
- pIC50 [10]: 4.71 to 5.78

Structure (SMILES): Cc1cc(-c2cc3cc(Cl)ccc3oc2=O)n(-c2nc(-c3ccccc3)cs2)n1
- pIC50 [6]: 4.50 to 5.39

Structure (SMILES): COc1ccc(-n2nc(C)n(-n3c(-c4cc5ccccc5oc4=O)cs/c3=N\c3ccccc3)c2=O)cc1
- IC50 [11]: 0.16 to 1.12 µg/mL
- IC50 [12]: 0.16 to 1.12 µg/mL (≈ 0.306 to 2.14 µM)
- IC50 [3]: 0.16 to 1.12 µg/mL
- IC50 [13]: 0.16 to 1.12 µg/mL (≈ 0.306 to 2.14 µM)

Structure (SMILES): COc1ccc(NC(=O)c2ccc(-n3cc(COc4cc(=O)oc5ccccc45)nn3)cc2)cc1
- pIC50 ([1]; mda-mb-231): 4.04 to 7.52

Structure (SMILES): Cc1ccc(-n2nc(C)n(-n3c(-c4cc5ccccc5oc4=O)cs/c3=N\c3ccccc3)c2=O)cc1
- IC50 [11]: 0.16 to 1.12 µg/mL
- IC50 [12]: 0.16 to 1.12 µg/mL (≈ 0.315 to 2.21 µM)
- IC50 [3]: 0.16 to 1.12 µg/mL
- IC50 [13]: 0.16 to 1.12 µg/mL (≈ 0.315 to 2.21 µM)

Structure (SMILES): Cc1cc(=O)oc2cc(OCc3cn(CCOc4ccc5ccc(=O)oc5c4)nn3)ccc12
- pIC50 [3]: 4.87 to 6.42
- pIC50 [4]: 4.87 to 6.42
- pIC50 [5]: 4.87 to 6.42

Structure (SMILES): Cc1cc(=O)oc2cc(OCc3cn(CCCCCCCCCCCCOc4ccc5ccc(=O)oc5c4)nn3)ccc12
- pIC50 [3]: 4.87 to 6.42
- pIC50 [4]: 4.87 to 6.42
- pIC50 [5]: 4.87 to 6.42

Structure (SMILES): Cc1cc(-c2cc3cc(Br)ccc3oc2=O)n(-c2nc(-c3ccc(Br)cc3)cs2)n1
- pIC50 [6]: 4.50 to 5.39

Structure (SMILES): O=c1ccc2ccc(OCCCCCCCn3cc(COc4ccc5ccc(=O)oc5c4)nn3)cc2o1
- pIC50 [3]: 4.87 to 6.42
- pIC50 [4]: 4.87 to 6.42
- pIC50 [5]: 4.87 to 6.42

Structure (SMILES): O=c1ccc2ccc(OCCCCCCCCCn3cc(COc4ccc5ccc(=O)oc5c4)nn3)cc2o1
- pIC50 [3]: 4.87 to 6.42
- pIC50 [4]: 4.87 to 6.42
- pIC50 [5]: 4.87 to 6.42

Structure (SMILES): O=c1ccc2ccc(OCCCCCCCCCCCCn3cc(COc4ccc5ccc(=O)oc5c4)nn3)cc2o1
- pIC50 [3]: 4.87 to 6.42
- pIC50 [4]: 4.87 to 6.42
- pIC50 [5]: 4.87 to 6.42

Structure (SMILES): Cc1cc(=O)oc2cc(OCc3cn(CCCCCCCOc4ccc5ccc(=O)oc5c4)nn3)ccc12
- pIC50 [3]: 4.87 to 6.42
- pIC50 [4]: 4.87 to 6.42
- pIC50 [5]: 4.87 to 6.42

Structure (SMILES): O=C(Nc1ccccc1Br)c1ccc(-n2cc(COc3cc(=O)oc4ccccc34)nn2)cc1
- pIC50 ([1]; mda-mb-231): 4.04 to 7.52

Structure (SMILES): COc1ccc(-c2csc(-n3nc(C)cc3-c3cc4cc(Br)ccc4oc3=O)n2)cc1
- pIC50 [6]: 4.50 to 5.39

Structure (SMILES): Cc1ccc(NC(=O)c2ccc(-n3cc(COc4cc(=O)oc5ccccc45)nn3)cc2)c(C)c1
- pIC50 ([1]; mda-mb-231): 4.04 to 7.52

Structure (SMILES): Cc1ccc2c(C3C4=C(CCCC4=O)OC3c3cc(=O)oc4ccc(C)cc34)cc(=O)oc2c1 (stereo unspecified)
- pIC50 [11]: 6.37 to 6.38

Structure (SMILES): O=C(Nc1ccc(Br)cc1)c1ccc(-n2cc(COc3cc(=O)oc4ccccc34)nn2)cc1
- pIC50 ([1]; mda-mb-231): 4.04 to 7.52

Structure (SMILES): COc1cccc(-c2cc(-c3cc4ccccc4oc3=O)nc(Cc3ccc(F)cc3)n2)c1
- pIC50 ([1]; Homo sapiens, MDA-MB-231, 24 h): 4.54 to 5.67
- pIC50 [2]: 4.54 to 5.67

Structure (SMILES): Cc1cc(-c2cc3cc(Cl)ccc3oc2=O)n(-c2nc(-c3ccc(Br)cc3)cs2)n1
- pIC50 [6]: 4.50 to 5.39

Structure (SMILES): Cc1c(Cl)cccc1NC(=O)c1ccc(-n2cc(COc3cc(=O)oc4ccccc34)nn2)cc1
- pIC50 ([1]; mda-mb-231): 4.04 to 7.52

Structure (SMILES): Cc1ccc2oc(=O)cc(C3OC4=C(C(=O)CCC4)C3c3cc(=O)oc4ccc(C)cc34)c2c1 (stereo unspecified)
- pIC50 [11]: 6.37 to 6.38

Structure (SMILES): CC(=O)O[C@H]1C(=O)[C@@]2(C)[C@H]([C@H](OC(=O)c3ccccc3)[C@]3(O)C[C@H](OC(=O)[C@H](O)[C@@H](NC(=O)c4ccccc4)c4ccccc4)C(C)=C1C3(C)C)[C@]1(OC(C)=O)CO[C@@H]1C[C@@H]2O [PACLITAXEL]
- pIC50 [7]: 7.85 to 8.48
- pIC50 [11]: 6.46
- pIC50 [8]: 7.85 to 8.48
- pIC50 [9]: 7.85 to 8.48
- pIC50 [10]: 7.85 to 8.48
